Calls of active or inactive are those of the source. How the calls were made is not given here.
System: CCRIS mutagenicity, Ames/micronucleus/aberration tests
Assay: CCRIS mutagenicity studies

Measured: mutagenic call

Nc1cc2c3c(ccc2c2ccccc12)[C@H](O)[C@@H](O)C=C3
inactive: Test System: AMES SALMONELLA TYPHIMURIUM, Strain/Indicator: TA98, Metabolic Activation: NONE, Method: PREINCUBATION inactive; negative | Test System: AMES SALMONELLA TYPHIMURIUM, Strain/Indicator: TA98, Metabolic Activation: RAT, LIVER, S-9, AROCLOR 1254, Method: PREINCUBATION inactive; negative | Test System: CHINESE HAMSTER OVARY, Strain/Indicator: CHO-K1-BH4 (HGPRT)/6-THIOGUANINE, Metabolic Activation: NONE, Method: STANDARD PLATE inactive; negative | Test System: CHINESE HAMSTER OVARY, Strain/Indicator: CHO-UV5 (HGPRT)/6-THIOGUANINE, Metabolic Activation: NONE, Method: STANDARD PLATE inactive; negative
active: Test System: AMES SALMONELLA TYPHIMURIUM, Strain/Indicator: TA100, Metabolic Activation: NONE, Method: PREINCUBATION active; positive | Test System: AMES SALMONELLA TYPHIMURIUM, Strain/Indicator: TA100, Metabolic Activation: RAT, LIVER, S-9, AROCLOR 1254, Method: PREINCUBATION active; positive | Test System: CHINESE HAMSTER OVARY, Strain/Indicator: CHO-K1-BH4 (HGPRT)/6-THIOGUANINE, Metabolic Activation: RAT, LIVER, S-9, AROCLOR 1254, Method: STANDARD PLATE active; positive | Test System: CHINESE HAMSTER OVARY, Strain/Indicator: CHO-UV5 (HGPRT)/6-THIOGUANINE, Metabolic Activation: RAT, LIVER, S-9, AROCLOR 1254, Method: STANDARD PLATE active; positive

Reference: PubChem BioAssay AID1259407 (Chemical Carcinogenesis Research Information System (CCRIS), 2018)
